Results from paper PMC8626775, “Anti-schistosomal activities of quinoxaline-containing compounds: From hit identification to lead optimisation” (European Journal of Medicinal Chemistry, 2021).
Values joined by “and” are separate entries in the source; they are usually repeats but may differ in a detail not shown here. Identical values can stand only once. Like-named read-outs stand apart in the source and are kept apart here.

Columns and labels:
[1] = test system: S. mansoni schistosomula; test: S. mansoni schistosomula high-throughput phenotype and motility screen (Roboworm), 72 h; format: cell-based, Schistosoma mansoni; settings: Schistosoma mansoni
Method: Cercariae derived from the NMRI ([…]) Puerto Rican strain (PR-1) of S. mansoni were shed from two Biomphalaria glabrata strains, the NMRI albino and pigmented outbred strains, under intensified lighting conditions (1 h of incubation at 26 °C). Cercariae were then mechanically transformed into schistosomula as previously described.
High-throughput screening (HTS) of selected compounds was conducted as previously described. Briefly, newly transformed schistosomula were distributed in a 384-well tissue culture plate (PerkinElmer, cat 6007460, seeding density of 120 parasites/well). Each compound (at a single concentration or two-fold titrations) was transferred into individual wells alongside the positive and negative controls (AUR at 10 μM final concentration in 0.625% DMSO and 0.625% DMSO, respectively). Schistosomula/compound co-cultures were then incubated at 37 °C for 72 h in a humidified atmosphere containing 5% CO2. Following the co-culture period, automatic assessment of compound-induced schistosomula motility and phenotypic changes were conducted with the high-content imaging platform Roboworm using the image analysis model previously described by Paveley et al..

[2] = test system: HepG2 cells; test: HepG2 MTT cytotoxicity assay; settings: for Toxicity on HepG2 in words: 24 h; for Selectivity Index (SI) Adult worms: HepG2 CC50 versus adult worm EC50; for Selectivity Index (SI) Somula: HepG2 CC50 versus schistosomula EC50
Method: Initially the cells were handled under sterile conditions and grown at 37 °C in a humidified atmosphere containing 5% CO2. Cytotoxicity was evaluated by way of a 3-(4, 5- dimethylthiazol-2-yl)-2,5-diphenyl tetrazolium bromide (MTT) assay as previously described. The cells were counted in a dual chamber counting slide using the BIORAD TC-10 Automated cell counter, seeded in a 96-well plate (Fisher Scientific, Loughborough, UK) at a density of 2 × 10^4 cells/well and incubated in an atmosphere of 5% CO2 at 37 °C. […] The absorbance readings (at 570 nm) of the soluble formazan crystals were recorded using PolarStar Omega plate reader (BMG-Labtech). […] The latter was used to calculate the selectivity index (SI) of the compounds presented herein.

[3] = test system: S. mansoni adult worms; test: S. mansoni adult worm motility screen (WormassayGP2), 72 h; format: cell-based, Schistosoma mansoni; settings: Schistosoma mansoni
Excerpt: Mice (Mus musculus HsdOLa:TO - Tuck Ordinary; Envigo, UK) were used for the mammalian-specific propagation of the S. mansoni life cycle. Experimental animals were infected with 4000 or 180 S. mansoni cercariae/mouse and perfused three- or seven-weeks post-infection to obtain S. mansoni juvenile or adult worms, respectively. Preparation steps following perfusion have been described previously. Briefly, the parasite material was washed three times with pre-warmed adult worm media (DMEM (Gibco, Paisley, UK) supplemented with 10% (v/v) Fetal Calf Serum (FCS, Gibco, Paisley, UK), 1% (v/v) L-glutamine (Gibco, Paisley, UK) and an antibiotic mixture (150 Units/ml penicillin and 150 μg/ml streptomycin; Gibco, UK)) to remove residual host contamination and incubated in a humidified environment containing 5% CO2 at 37 °C for at least 1 h.
For the evaluation of anti-schistosomal activity on the adult stage of the parasite, 7-wk old worms were transferred into 48 well tissue culture plates (1–3 worm pairs/well, in duplicate). […] DMSO (0.5%) and praziquantel (10 μM in 0.5% DMSO) were also included as negative and positive control treatments. Treated adult worms were incubated for 72 h in a humidified environment containing 5% CO2 at 37 °C. Parasite motility after compound treatment was assessed by a digital image processing-based system (WormassayGP2), modified after Wormassay. Following compound-parasite co-incubation, eggs were collected, fixed in formalin (10% v/v formaldehyde) and enumerated aiming to collect further information on any compound-induced effects on parasite fecundity and IVLE production.

[4] = test system: adult S. japonicum male worms; test: In vitro screening of S. japonicum adults at 100 nM (WormAssay motility, descriptors, severity score); format: cell-based, Schistosoma japonicum; settings: for Effect on S. japonicum adult male worms: 5, 24, 48 and 72 h; for SEVERITY SCORES 5 h / SEVERITY SCORES 24 h / SEVERITY SCORES 48 h / DESCRIPTORS 48 h / SEVERITY SCORES 72 h / DESCRIPTORS 72 h: S. japonicum; for SEVERITY SCORES 5 h / SEVERITY SCORES 24 h / SEVERITY SCORES 48 h / SEVERITY SCORES 72 h: max = 4, one line per replicate; for DESCRIPTORS 48 h / DESCRIPTORS 72 h: one line per replicate
Method: (§1) For each species, parasite recovery involved reverse perfusion of the hepatic portal and mesenteric system using DMEM (Fisher Scientific). Parasites were washed six times with Basch 169 medium supplemented with 100 U/ml penicillin and 100 μg/ml streptomycin before manually distributing approximately 5 males per well (on occasion 1 or 2 females might also be present) of a 24-well plate (Corning Costar 3524). […] The next morning, a final concentration of 100 nM compound (in 1 μL DMSO) was added to each well and the final volume made up to 2 ml with Basch 169 medium supplemented with antibiotics and FBS. Each compound was tested in triplicate (except for some instances tested in duplicate). […] The phenotypic characterisation of compound effects focused on male worms due to the greater range of their motility characteristics that include flexing, bending, stretching, sucker walking and adherence, compared to the more sedentary female worms. In addition to descriptors, WormAssay, as adapted for the schistosome, was used to measure average worm motility per well [72, 73].

[5] = test system: Adult S. haematobium worms; test: In vitro screening of S. haematobium adults at 100 nM (WormAssay motility, descriptors, severity score); format: cell-based, Schistosoma haematobium
Method: as §1

[6] = 72 h, Table 2, average of phenotype and motility EC50, 72 h, read-out: Activity on schistosomula (EC50, μM - 72 h) Average
[7] = 72 h, Table 2, motility, 72 h, three replicate titrations (0.313–10 μM), read-out: Activity on schistosomula (EC50, μM - 72 h) M
[8] = 72 h, Table 2, phenotype, 72 h, three replicate titrations (0.313–10 μM), read-out: Activity on schistosomula (EC50, μM - 72 h) P
[9] = Table 4, Series A, read-out: Anti-schistosomal activity EC50 Schistosomula (μM) Motility
[10] = Table 4, Series A, read-out: Anti-schistosomal activity EC50 Schistosomula (μM) Phenotype
[11] = Table 4, Series A, read-out: Anti-schistosomal activity EC50 Adult (nM) Motility
[12] = Table 2, 72 h, titrations 0.0095–5 μM, WormassayGP2, read-out: Activity on adult worms (EC50, μM - 72 h) Motility
[13] = Table 5, Series C, read-out: Anti-schistosomal activity EC50 Schistosomula (μM) Motility
[14] = Table 5, Series C, read-out: Anti-schistosomal activity EC50 Schistosomula (μM) Phenotype
[15] = Table 5, Series C, read-out: Anti-schistosomal activity EC50 Adult (nM) Motility

| Structure (SMILES) | EC50 [1, 6] | EC50 [1, 7] | EC50 [1, 8] | EC50 [1, 9] | EC50 [1, 10] | EC50 [3, 11] | EC50 [3, 12] | EC50 [1, 13] | EC50 [1, 14] | EC50 [3, 15] | Toxicity on HepG2 in words [2] | Selectivity Index (SI) Adult worms [2] | Selectivity Index (SI) Somula [2] | Effect on S. japonicum adult male worms [4] | SEVERITY SCORES 5 h [4] | SEVERITY SCORES 24 h [4] | SEVERITY SCORES 48 h [4] | DESCRIPTORS 48 h [4] | SEVERITY SCORES 72 h [4] | DESCRIPTORS 72 h [4] | further results |
| --- | --- | --- | --- | --- | --- | --- | --- | --- | --- | --- | --- | --- | --- | --- | --- | --- | --- | --- | --- | --- | --- |
| O=[N+]([O-])c1ccc2nc(Nc3ccc(F)cc3)c(Nc3ccc(F)cc3)nc2c1 [Compound 28, N2, N3-bis(4-fluorophenyl)-6-nitroquinoxaline-2,3-diamine] | 1.77 µM | 1.4 µM | 2.14 µM | 1.4 µM | 2.14 µM | 382 nM | 382 nM |  |  |  | low toxicity |  |  |  |  |  |  |  |  |  |  |
| CC(=O)Nc1ccc2nc(Nc3ccc(Cl)c(Cl)c3)c(Nc3ccc(Cl)c(Cl)c3)nc2c1 [Compound 22c, N-(2,3-bis((3,4-dichlorophenyl)amino)quinoxalin-6-yl)acetamide] | 2.91 µM | 2.79 µM | 3.04 µM |  |  |  | 704 nM | 2.79 µM | 3.04 µM | 704 nM |  | 6.52 | 1.57 |  |  |  |  |  |  |  | EC50 ([1]; 72 h, read-out: EC50 on schistosomula (bounds and ranges given)): > 2 µM |
| O=[N+]([O-])c1ccc2nc(Nc3ccc(Br)cc3)c(Nc3ccc(Br)cc3)nc2c1 [Compound 29, N2, N3-bis(4-bromophenyl)-6-nitroquinoxaline-2,3-diamine] | 0.71 µM | 0.65 µM | 0.78 µM | 0.83 µM | 1.06 µM | 122 nM | 122 nM |  |  |  |  | 32.52 | 5.55 |  |  |  |  |  |  |  |  |

More lines, in order of falling EC50 [1, 6], values ahead:

| EC50 [1, 6] | EC50 [1, 7] | EC50 [1, 8] | EC50 [1, 9] | EC50 [1, 10] | EC50 [3, 11] | EC50 [3, 12] | EC50 [1, 13] | EC50 [1, 14] | EC50 [3, 15] | Structure (SMILES) | Toxicity on HepG2 in words [2] | Selectivity Index (SI) Adult worms [2] | Selectivity Index (SI) Somula [2] | Effect on S. japonicum adult male worms [4] | SEVERITY SCORES 5 h [4] | SEVERITY SCORES 24 h [4] | SEVERITY SCORES 48 h [4] | DESCRIPTORS 48 h [4] | SEVERITY SCORES 72 h [4] | DESCRIPTORS 72 h [4] | further results |
| --- | --- | --- | --- | --- | --- | --- | --- | --- | --- | --- | --- | --- | --- | --- | --- | --- | --- | --- | --- | --- | --- |
| 1.41 µM | 1.8 µM | 1.02 µM |  |  |  | 318 nM | 1.8 µM | 1.02 µM | 318 nM | CCCCCC(=O)Nc1ccc2nc(Nc3ccc(Cl)c(Cl)c3)c(Nc3ccc(Cl)c(Cl)c3)nc2c1 [Compound 22d, N-(2,3-bis((3,4-dichlorophenyl)amino)quinoxalin-6-yl)hexanamide] | low toxicity | 7.65 | 1.72 |  |  |  |  |  |  |  |  |
| 1.26 µM | 1.3 µM | 1.22 µM | 1.3 µM | 1.22 µM | 12 nM | 12 nM |  |  |  | O=[N+]([O-])c1ccc2nc(Nc3cccc(Cl)c3)c(Nc3cccc(Cl)c3)nc2c1 [Compound 25, N^2, N^3-bis(3-chlorophenyl)-6-nitroquinoxaline-2,3-diamine] |  | 47.99 | 0.46 | decreased motility starting at 48 h | 0 | 0 | 2 | S, on sides | 2 | S+, on sides |  |
| 0.38 µM | 0.43 µM | 0.34 µM | 0.43 µM | 0.34 µM | 2.59 nM | 2.59 nM |  |  |  | O=[N+]([O-])c1ccc2nc(Nc3cccc(C(F)(F)F)c3)c(Nc3cccc(C(F)(F)F)c3)nc2c1 [Compound 30, 6-nitro-N2, N3-bis(3-(trifluoromethyl)phenyl)quinoxaline-2,3-diamine] |  | 348 and 347.59 | 2.36 | decreased motility starting at 48 h | 0 | 0 | 2 and 1 | S, on sides and S | 2 and 1 | S, on sides and S+ | Effect on S. haematobium adult worms ([5]; 5, 24, 48 and 72 h): relatively mild effects; SEVERITY SCORES 5 h ([5]; S. haematobium, 5 h, max = 4, one line per replicate): 0; SEVERITY SCORES 24 h ([5]; S. haematobium, 24 h, max = 4, one line per replicate): 0; SEVERITY SCORES 48 h ([5]; S. haematobium, 48 h, max = 4, one line per replicate): 1 and 2; DESCRIPTORS 48 h ([5]; S. haematobium, 48 h, one line per replicate): S-unc, on sides; SEVERITY SCORES 72 h ([5]; S. haematobium, 72 h, max = 4, one line per replicate): 2; DESCRIPTORS 72 h ([5]; S. haematobium, 72 h, one line per replicate): S-unc, on sides |
